ChEMBL document CHEMBL1201862, “PubChem BioAssay data set” (2004)
Active and inactive are the calls of the source.

Key:
[1] = biological target: T1, Oxysterols receptor LXR-beta (Homo sapiens, UniProt P55055); assay type: functional, cell-based;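 further: Cell-based luminescence dose-response assay of agonist activity at LXR, run as a confirmatory counterscreen to a daf-12 agonist screen; HEK293 cells with Gal4-LXR fusion and GAL4-driven luciferase reporter; agonist potency from rising luciferase signal of a Gal4-LXR reporter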
T1 sequence (P55055 whole entry): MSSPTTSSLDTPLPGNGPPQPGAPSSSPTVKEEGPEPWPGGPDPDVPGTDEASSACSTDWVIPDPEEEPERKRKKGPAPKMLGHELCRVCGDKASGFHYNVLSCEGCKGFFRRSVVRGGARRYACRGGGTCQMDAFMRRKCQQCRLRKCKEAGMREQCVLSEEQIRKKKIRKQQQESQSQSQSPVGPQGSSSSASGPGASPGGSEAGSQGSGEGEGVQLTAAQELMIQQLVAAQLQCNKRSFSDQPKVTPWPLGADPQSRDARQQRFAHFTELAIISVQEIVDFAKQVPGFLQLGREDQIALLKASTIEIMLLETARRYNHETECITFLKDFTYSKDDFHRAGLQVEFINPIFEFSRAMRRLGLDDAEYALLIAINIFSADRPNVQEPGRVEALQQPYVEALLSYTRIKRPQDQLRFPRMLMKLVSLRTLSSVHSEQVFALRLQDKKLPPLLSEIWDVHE

cells [2] = test: cells
Prothrombin = Prothrombin (Homo sapiens, UniProt P00734); test: Thrombin 1536 HTS Dose Response Confirmation. [Related pubchem assays: 1046 (Thrombin 1536 HTS; hits were confirmed in this assay)]; assay type: functional
[3] = P. falciparum Dd2 growth inhibitors, dose response, SYBR Green, dry powder samples, set 9 (AID 1159568); assay type: functional, cell-based
Kallikrein-7 = Kallikrein-7 (Homo sapiens, UniProt P49862); test: Fluorescence Intensity-based biochemical primary high throughput dose response assay to identify activators of kallikrein-7 (K7) zymogen.
Paired box protein Pax-8 = Paired box protein Pax-8 (Homo sapiens, UniProt Q06710); test: inhibitors of PAX8-driven TPO luciferase reporter, dose response, RMG-I cells, cherry-pick (AID 687027); assay type: functional, cell-based;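 further: luciferase reporter driven by Pax8 target thyroperoxidase promoter measured by SteadyGlo luminescence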
[4] = NIH:OVCAR-3 ovarian cancer cell cytotoxicity, dose response, PAX8 inhibitor project, plate reader, dry powder samples (AID 743044); assay type: functional, cell-based
[5] = ADAM10 protease inhibitors, dose response, selectivity assay for ADAM17 exosite inhibitor project, biochemical, FRET peptide substrate, recombinant human ADAM10 (AID 743259);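 further: ADAM10 enzyme cleaving a FRET peptide substrate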
[6] = biological target: Disintegrin and metalloproteinase domain-containing protein 17 (Homo sapiens, UniProt P78536); test: exosite inhibitors of ADAM17, dose response, biochemical (AID 743260)
[7] = biological target: T2, Heat shock factor protein 1 (Mus musculus, UniProt P38532); test: inhibition of MG132-induced HSE-luciferase signal, confirmation, cell-based, NIH3T3, luminescence, dose retest (AID 2382); assay type: functional;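 further: NIH3T3 fibroblasts with HSF1-driven luciferase reporter stressed by proteasome inhibitor MG132; luminescence from HSF1-driven luciferase expression after 8 hours of MG132 stress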
T2 sequence (P38532 whole entry): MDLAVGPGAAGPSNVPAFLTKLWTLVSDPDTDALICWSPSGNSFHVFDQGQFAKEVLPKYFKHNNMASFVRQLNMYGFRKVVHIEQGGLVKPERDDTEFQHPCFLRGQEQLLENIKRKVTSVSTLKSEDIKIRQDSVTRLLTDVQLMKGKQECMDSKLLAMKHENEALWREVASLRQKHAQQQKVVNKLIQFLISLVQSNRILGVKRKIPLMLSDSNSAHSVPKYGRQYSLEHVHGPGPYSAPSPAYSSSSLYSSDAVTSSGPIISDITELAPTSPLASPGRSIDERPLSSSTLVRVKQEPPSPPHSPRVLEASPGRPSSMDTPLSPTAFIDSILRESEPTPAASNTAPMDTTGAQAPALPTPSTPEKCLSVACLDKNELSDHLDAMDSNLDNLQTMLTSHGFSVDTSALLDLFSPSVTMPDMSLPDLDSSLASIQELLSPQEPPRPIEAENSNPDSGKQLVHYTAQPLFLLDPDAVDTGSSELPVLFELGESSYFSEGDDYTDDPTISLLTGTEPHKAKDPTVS

Vero = test: host cell cytotoxicity of antiviral hits, dose response, cytotoxicity control for West Nile virus antiviral project, secondary assay (AID 1650); assay type: functional; conditions: Chlorocebus sabaeus
[8] = biological target: T3, Trace amine-associated receptor 1 (Homo sapiens, UniProt Q96RJ0); test: Counterscreen for agonists of the human trace amine associated receptor 1 (hTAAR1): Fluorescence-based cell-based high throughput dose response assay to identify hTAAR1 agonist that also desensitize TAAR1 receptor response.; assay type: functional
T3 sequence (Q96RJ0 whole entry): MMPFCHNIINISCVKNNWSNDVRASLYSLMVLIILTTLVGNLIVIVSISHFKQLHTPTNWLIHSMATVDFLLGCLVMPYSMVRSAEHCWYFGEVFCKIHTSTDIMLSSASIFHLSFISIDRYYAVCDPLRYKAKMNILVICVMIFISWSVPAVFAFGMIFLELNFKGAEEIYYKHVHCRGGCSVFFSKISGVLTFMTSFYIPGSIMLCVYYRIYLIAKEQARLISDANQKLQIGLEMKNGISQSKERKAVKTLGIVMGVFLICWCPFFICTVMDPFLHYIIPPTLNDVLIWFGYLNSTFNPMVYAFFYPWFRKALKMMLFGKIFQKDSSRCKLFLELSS

cells [9] = assay type: functional, cell-based
[10] = biological target: T3, Trace amine-associated receptor 1; test: Fluorescence-based cell-based high throughput dose response assay to identify agonists of the human trace amine associated receptor 1 (TAAR1).; assay type: functional
cells [11] = assay type: functional, cell-based; remark: listed apart in the source
[12] = P. falciparum Dd2 growth inhibitors, dose response, SYBR Green, cherry-picked samples (AID 1159567); assay type: functional, cell-based
[13] = P. falciparum ATP4 D1247Y mutant growth inhibitors, dose response, NITD609-resistant line, SYBR Green, dry powder (AID 1159571); assay type: functional, cell-based;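 further: parasites synchronized at ring stage by sorbitol before testing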
[14] = P. falciparum 3D7-ScDHODH growth inhibitors, dose response, SYBR Green, dry powder samples (AID 1159570); assay type: functional, cell-based;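 further: parasite growth measured after 72 hours of compound exposure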
[15] = P. falciparum Dd2 growth inhibitors, dose response, SYBR Green, dry powder samples (AID 1159566); assay type: functional, cell-based;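 further: potency for growth inhibition with lower SYBR green DNA signal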
[16] = biological target: T4, DNA repair protein RAD52 homolog (Homo sapiens, UniProt P43351); assay type: functional, biochemical
T4 sequence (P43351 whole entry): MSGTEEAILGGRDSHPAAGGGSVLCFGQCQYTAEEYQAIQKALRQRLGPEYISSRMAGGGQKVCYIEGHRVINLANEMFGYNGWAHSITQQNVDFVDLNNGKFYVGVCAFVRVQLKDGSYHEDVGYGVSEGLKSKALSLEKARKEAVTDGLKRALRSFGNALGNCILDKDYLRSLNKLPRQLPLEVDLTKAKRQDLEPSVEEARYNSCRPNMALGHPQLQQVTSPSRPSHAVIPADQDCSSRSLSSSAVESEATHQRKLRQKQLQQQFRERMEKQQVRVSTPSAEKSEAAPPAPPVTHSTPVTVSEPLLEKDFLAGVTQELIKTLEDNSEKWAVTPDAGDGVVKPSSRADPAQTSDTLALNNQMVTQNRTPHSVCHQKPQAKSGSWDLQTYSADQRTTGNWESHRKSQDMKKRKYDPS

[17] = biological target: T5, Rac GTPase-activating protein 1 (Homo sapiens, UniProt Q9H0H5); test: MgcRacGAP GTPase-activating activity inhibitors, confirmation, biochemical, ADP Hunter fluorescence, primary and confirmatory (AID 624330); assay type: functional
T5 sequence (Q9H0H5 whole entry): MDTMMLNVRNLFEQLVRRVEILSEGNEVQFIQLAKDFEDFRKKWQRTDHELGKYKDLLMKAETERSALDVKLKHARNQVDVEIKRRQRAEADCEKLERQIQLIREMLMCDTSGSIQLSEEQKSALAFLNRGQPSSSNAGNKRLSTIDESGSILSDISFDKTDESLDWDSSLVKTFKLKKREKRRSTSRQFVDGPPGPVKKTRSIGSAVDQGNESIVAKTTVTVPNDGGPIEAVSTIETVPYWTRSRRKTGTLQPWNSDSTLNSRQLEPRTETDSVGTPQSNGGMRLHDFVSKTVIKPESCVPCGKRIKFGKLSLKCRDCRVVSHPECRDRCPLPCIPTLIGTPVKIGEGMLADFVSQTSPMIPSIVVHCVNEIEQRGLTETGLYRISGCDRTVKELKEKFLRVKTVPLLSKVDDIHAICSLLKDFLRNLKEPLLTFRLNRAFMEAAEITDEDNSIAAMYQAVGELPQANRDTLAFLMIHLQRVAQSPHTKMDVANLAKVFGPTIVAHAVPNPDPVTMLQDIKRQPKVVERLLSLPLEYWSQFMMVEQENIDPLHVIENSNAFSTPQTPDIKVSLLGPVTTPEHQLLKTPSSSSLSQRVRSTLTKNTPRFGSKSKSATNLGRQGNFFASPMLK

P388 = test: cells; assay type: functional; conditions: Mus musculus
P388/ADR = test: cells; assay type: functional; conditions: Mus musculus
Nonstructural protein 1 = Nonstructural protein 1 (Influenza A virus, UniProt Q194T2); assay type: functional, Influenza A virus (A/California/07/2009(H1N1))
SN12K1 = test: cells; assay type: functional; conditions: Homo sapiens
Genome polyprotein = Genome polyprotein (dengue virus type 2, UniProt P29990); test: Dengue-2 NS5 methyltransferase inhibitors, primary screen, biochemical, confirmation dose response (AID 588689); assay type: functional
Fatty acid synthase [18] = biological target: T6, Fatty acid synthase (Homo sapiens, UniProt P49327); test: FAS thioesterase domain inhibitors, dose response, biochemical, kinetic fluorescence intensity (AID 624326); assay type: functional;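 further: rate of fluorescence rise from hydrolysis of a fluorogenic O-methyl fluorescein ester substrate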
Fatty acid synthase [19] = biological target: T6, Fatty acid synthase; test: FAS thioesterase domain inhibitors, dose response, biochemical, endpoint fluorescence intensity, uHTS hits (AID 624327); assay type: functional;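 further: fluorescence from hydrolysis of an O-methyl fluorescein acyl ester substrate by the enzyme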

T6 sequence (P49327 whole entry, the tested form may be a part): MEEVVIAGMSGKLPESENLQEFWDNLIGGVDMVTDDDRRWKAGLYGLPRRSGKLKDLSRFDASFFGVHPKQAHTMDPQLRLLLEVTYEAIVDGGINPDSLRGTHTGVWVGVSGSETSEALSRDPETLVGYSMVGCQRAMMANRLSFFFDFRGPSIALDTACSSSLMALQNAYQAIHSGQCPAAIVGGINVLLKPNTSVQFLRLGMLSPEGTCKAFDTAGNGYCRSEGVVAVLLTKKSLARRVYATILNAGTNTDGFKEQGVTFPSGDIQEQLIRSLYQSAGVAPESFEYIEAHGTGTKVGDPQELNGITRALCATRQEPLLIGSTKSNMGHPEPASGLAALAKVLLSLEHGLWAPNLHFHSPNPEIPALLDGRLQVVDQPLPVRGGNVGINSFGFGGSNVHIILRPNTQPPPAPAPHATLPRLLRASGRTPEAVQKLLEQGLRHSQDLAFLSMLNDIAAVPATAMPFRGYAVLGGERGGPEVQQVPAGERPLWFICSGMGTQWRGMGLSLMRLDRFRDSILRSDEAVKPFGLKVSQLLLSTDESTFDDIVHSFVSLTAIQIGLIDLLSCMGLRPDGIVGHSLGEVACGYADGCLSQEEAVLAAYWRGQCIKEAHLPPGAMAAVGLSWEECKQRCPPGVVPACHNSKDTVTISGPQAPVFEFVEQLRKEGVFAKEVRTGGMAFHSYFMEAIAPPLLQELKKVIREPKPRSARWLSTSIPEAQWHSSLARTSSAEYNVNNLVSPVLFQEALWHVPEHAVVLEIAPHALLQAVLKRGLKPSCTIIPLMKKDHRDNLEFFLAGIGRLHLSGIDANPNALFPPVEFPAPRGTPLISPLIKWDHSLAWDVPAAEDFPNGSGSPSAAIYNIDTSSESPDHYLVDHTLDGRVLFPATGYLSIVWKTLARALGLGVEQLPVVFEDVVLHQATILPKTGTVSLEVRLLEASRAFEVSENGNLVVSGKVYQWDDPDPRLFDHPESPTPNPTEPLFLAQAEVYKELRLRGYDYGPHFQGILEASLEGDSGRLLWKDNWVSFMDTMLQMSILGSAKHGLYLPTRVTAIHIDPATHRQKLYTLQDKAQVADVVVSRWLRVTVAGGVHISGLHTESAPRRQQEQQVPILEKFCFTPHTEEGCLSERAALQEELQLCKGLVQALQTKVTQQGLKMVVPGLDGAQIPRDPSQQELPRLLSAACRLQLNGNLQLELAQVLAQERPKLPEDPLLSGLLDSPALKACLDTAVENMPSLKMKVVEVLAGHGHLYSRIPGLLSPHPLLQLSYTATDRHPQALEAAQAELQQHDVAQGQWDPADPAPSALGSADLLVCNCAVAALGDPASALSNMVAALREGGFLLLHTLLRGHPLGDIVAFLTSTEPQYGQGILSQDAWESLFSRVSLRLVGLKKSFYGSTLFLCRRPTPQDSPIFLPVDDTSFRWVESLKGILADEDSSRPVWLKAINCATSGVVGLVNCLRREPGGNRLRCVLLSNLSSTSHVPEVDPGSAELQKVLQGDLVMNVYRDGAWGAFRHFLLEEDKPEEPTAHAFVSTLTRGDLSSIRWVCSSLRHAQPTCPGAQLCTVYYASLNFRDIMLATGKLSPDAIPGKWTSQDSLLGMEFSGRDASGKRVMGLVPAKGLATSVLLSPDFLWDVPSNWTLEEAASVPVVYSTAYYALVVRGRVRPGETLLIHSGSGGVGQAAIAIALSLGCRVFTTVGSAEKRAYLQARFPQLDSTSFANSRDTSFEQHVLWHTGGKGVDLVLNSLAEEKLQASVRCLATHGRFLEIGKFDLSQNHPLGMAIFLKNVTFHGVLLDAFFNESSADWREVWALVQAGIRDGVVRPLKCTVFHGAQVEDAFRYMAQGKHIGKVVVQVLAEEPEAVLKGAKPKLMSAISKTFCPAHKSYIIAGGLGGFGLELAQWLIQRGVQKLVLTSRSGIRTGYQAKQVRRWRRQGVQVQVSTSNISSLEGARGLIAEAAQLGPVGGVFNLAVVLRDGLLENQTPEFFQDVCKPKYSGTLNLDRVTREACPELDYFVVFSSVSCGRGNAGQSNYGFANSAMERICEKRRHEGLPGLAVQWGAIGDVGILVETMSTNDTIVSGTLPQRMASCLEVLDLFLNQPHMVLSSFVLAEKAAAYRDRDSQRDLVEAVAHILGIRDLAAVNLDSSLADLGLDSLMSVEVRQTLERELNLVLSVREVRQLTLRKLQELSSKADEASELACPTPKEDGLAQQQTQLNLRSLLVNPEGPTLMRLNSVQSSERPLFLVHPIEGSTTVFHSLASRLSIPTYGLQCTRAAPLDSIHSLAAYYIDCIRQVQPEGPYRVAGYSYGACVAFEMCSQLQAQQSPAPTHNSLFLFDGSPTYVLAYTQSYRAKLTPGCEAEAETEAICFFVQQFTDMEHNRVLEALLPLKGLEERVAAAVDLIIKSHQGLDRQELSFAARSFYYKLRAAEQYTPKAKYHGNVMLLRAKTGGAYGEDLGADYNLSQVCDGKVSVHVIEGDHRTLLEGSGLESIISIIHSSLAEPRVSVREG
Disintegrin and metalloproteinase domain-containing protein 17, sequence (P78536 whole entry, the tested form may be a part): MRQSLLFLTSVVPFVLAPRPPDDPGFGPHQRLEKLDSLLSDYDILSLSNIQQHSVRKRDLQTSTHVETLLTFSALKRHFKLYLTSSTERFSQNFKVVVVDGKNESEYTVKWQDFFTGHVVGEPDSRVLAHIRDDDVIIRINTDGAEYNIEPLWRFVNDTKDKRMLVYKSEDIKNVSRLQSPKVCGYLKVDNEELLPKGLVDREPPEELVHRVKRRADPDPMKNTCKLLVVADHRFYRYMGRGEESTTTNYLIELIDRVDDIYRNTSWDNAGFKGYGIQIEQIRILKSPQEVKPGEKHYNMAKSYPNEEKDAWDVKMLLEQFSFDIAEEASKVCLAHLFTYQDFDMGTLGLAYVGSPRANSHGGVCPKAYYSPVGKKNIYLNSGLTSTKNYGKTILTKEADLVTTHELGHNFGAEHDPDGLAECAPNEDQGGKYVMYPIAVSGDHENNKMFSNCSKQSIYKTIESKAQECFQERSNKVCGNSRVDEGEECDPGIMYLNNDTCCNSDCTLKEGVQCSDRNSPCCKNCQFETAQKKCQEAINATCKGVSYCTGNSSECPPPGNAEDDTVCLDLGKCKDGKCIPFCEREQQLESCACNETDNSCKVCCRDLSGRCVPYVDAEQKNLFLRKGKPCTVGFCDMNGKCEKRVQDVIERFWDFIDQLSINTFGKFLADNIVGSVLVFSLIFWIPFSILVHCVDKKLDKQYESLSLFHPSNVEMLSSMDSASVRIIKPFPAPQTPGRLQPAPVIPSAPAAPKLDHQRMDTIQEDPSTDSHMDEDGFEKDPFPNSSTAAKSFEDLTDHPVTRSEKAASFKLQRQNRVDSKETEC
Genome polyprotein, sequence (P29990 2492-3391 limits assumed): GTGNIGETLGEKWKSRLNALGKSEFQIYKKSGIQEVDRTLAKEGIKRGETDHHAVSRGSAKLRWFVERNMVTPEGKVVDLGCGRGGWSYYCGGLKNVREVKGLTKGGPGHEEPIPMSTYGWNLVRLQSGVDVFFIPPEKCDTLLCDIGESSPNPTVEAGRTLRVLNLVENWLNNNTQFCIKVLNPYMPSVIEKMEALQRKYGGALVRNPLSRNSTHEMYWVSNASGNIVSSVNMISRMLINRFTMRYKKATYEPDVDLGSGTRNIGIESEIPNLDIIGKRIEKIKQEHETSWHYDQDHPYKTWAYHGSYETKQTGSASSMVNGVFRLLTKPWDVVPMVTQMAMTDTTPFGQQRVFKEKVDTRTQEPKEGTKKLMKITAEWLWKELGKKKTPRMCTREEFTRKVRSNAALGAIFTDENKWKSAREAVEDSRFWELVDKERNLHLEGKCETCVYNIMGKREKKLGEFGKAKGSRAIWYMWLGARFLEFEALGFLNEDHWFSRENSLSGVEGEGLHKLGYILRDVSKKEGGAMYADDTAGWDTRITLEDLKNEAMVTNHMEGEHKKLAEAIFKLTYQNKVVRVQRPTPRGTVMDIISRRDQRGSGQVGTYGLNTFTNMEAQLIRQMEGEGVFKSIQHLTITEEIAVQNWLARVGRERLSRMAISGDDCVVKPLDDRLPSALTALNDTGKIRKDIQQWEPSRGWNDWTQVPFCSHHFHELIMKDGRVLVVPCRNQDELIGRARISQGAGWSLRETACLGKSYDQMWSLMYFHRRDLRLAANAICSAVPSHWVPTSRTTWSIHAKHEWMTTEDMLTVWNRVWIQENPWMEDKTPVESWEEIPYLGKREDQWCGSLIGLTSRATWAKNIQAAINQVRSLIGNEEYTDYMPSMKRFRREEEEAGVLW
Nonstructural protein 1, sequence (Q194T2 whole entry): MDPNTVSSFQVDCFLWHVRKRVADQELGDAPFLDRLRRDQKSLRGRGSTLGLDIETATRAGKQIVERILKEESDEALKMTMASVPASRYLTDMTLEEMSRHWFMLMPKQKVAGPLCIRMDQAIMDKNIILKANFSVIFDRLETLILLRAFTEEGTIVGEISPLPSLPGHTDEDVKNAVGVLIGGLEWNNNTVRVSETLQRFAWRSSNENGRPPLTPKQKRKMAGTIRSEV
Kallikrein-7, sequence (P49862 whole entry): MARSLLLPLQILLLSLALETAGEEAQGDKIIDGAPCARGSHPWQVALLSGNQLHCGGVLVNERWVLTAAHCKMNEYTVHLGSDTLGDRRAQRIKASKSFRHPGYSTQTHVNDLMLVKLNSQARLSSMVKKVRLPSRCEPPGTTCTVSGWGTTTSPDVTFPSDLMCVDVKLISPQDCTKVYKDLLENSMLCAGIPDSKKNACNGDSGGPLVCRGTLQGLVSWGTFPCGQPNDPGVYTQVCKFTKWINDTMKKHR

SMILES: Cc1ccc(C)c(NC(=O)c2ccc3ccccc3n2)c1
- EC50 [1]: > 67.5 µM (inactive)
- EC50 (cells [2]): > 67.5 µM (inactive)

SMILES: C=CCOc1ccc(C(=O)C2=C(O)C(=O)N(CCCOC)C2c2ccncc2)cc1 (centres undefined)
- IC50 (Prothrombin): > 50 µM (inconclusive)

SMILES: C/C=C/c1ccc([C@H]2[C@@H](CO)N(C(=O)Nc3ccccc3F)[C@H]2C#N)cc1
- AC50 [3]: 13.7 µM (active)

SMILES: CCCNC(=O)N1[C@H](C#N)[C@@H](c2ccccc2C2=CCCCC2)[C@@H]1CO
- AC50 [3]: 4.33 µM (active)

SMILES: CCn1ncc(Br)c1C(=O)Nc1cc([N+](=O)[O-])ccc1C
- IC50 (Prothrombin): > 50 µM (not active)

SMILES: O=C(/C=C/Nc1ccc(F)cc1)c1cccs1
- EC50 [1]: > 67.6 µM (inactive)
- EC50 (cells [2]): > 67.6 µM (inactive)

SMILES: O=C(O)CCC(=O)NN1C(=O)c2ccccc2NC1c1ccc(F)cc1 (centres undefined)
- EC50 (Kallikrein-7): > 0.286 µM (active)

SMILES: O=C(Nc1ccc(F)cc1)N[C@H]1CC[C@H](CCNC(=O)c2cc(Cl)cc(Cl)c2)O[C@H]1CO
- AC50 (Paired box protein Pax-8): 8.97 µM (active)
- AC50 [4]: 33 µM (active)

SMILES: CCCCC[C@@H](C)N1C[C@@H](COCc2ccccc2)Oc2cc(N3CCC[C@H]3CO)ccc2S1(=O)=O
- IC50 [5]: 9.07 µM (active)
- IC50 [6]: > 69.5 µM (inactive)

SMILES: CCCCCCc1cc2cc(S(=O)(=O)c3ccc(F)c(Cl)c3)c(=O)oc2cc1O
- EC50 [7]: 17.5 µM (active)
- CC50 (Vero): 10.9 µM (active)

SMILES: NS(=O)(=O)c1ccc(CCNC(=O)CNCCc2ccccc2)cc1
- IC50 [8]: 3.56 µM (active)
- EC50 (cells [9]): > 29.9 µM (inactive)
- EC50 [10]: 1.07 µM (active)
- IC50 (cells [11]): > 29.9 µM (inactive)

SMILES: O=C(C[C@@H]1CC[C@@H]2[C@H](COC[C@@H](O)CN2C(=O)c2ccncc2)O1)Nc1ccc(-c2ccccc2)cc1
- AC50 [3]: 15.3 µM (active)

SMILES: O=C(O)c1ccccc1SCC(=O)N1CCOCC1
- IC50 (Prothrombin): > 50 µM (not active)

SMILES: Cc1cc(N(C)C)nc(Nc2ccccc2)n1
- IC50 [8]: 0.273 µM (active)
- EC50 (cells [9]): > 29.9 µM (inactive)
- EC50 [10]: 0.128 µM (active)
- IC50 (cells [11]): > 29.9 µM (inactive)

SMILES: COc1cccc(S(=O)(=O)N(C)C[C@@H]2Oc3ncc(C#Cc4ccc(OC)c(OC)c4)cc3C(=O)N([C@H](C)CO)C[C@@H]2C)c1
- AC50 [12]: 1.23 µM (active)
- AC50 [13]: 0.428 µM (active)
- AC50 [14]: 0.724 µM (active)
- AC50 [15]: 0.276 µM (active)

SMILES: CCOC(=O)C(NCCc1ccccc1)(NC(=O)CC)C(F)(F)F (centres undefined)
- IC50 [8]: 8.43 µM (active)
- EC50 (cells [9]): > 29.9 µM (inactive)
- EC50 [10]: 1.81 µM (active)
- IC50 (cells [11]): > 29.9 µM (inactive)

SMILES: CCN1CCN(c2ccc(/N=C/c3ccccc3O)cc2)CC1
- AC50 [16]: 2.23 µM (active)
- IC50 [17]: 20.8 µM (active)

SMILES: NS(=O)(=O)c1ccc(N/N=C/C=C/c2ccccc2[N+](=O)[O-])cc1
- IC50 [5]: 13.7 µM (inactive)
- IC50 [6]: > 69.5 µM (inactive)

SMILES: COc1cc2c(ccc3c4cc(OC)c(OC)cc4c[n+](C)c23)cc1O [FAGARONINE]
- AC50 [16]: < 0.244 µM (active)
- IC50 [17]: 42.5 µM (active)
- GI50 (P388): 0.489 µM (active)
- GI50 (P388/ADR): 66.5 µM (inactive)
- IC50 (Nonstructural protein 1): > 100 µM (active)
- GI50 (SN12K1): 1.95 µM (inactive)

SMILES: COc1cccc(C(=O)N[C@H](C(=O)N2CCC[C@H]2C(=O)NCCc2ccccc2Cl)C2CCCCC2)c1
- IC50 [8]: 6.66 µM (active)
- EC50 (cells [9]): > 29.9 µM (inactive)
- EC50 [10]: 6.72 µM (active)
- IC50 (cells [11]): > 29.9 µM (inactive)

SMILES: O=C1NC(Nc2nc3ccccc3s2)(C(F)(F)F)C(=O)N1C1CCCCC1 (centres undefined)
- CC50 (Vero): 3.44 µM (active)

SMILES: CCc1ccc(S(=O)(=O)ON2C(=O)c3ccccc3C2=O)cc1
- IC50 (Genome polyprotein): > 100 µM (active)
- IC50 (Fatty acid synthase [18]): 1.28 µM (active)
- IC50 (Prothrombin): 1.55 µM (active)
- IC50 (Fatty acid synthase [19]): 2.41 µM (active)

SMILES: CCOC(=O)c1c(C)nc(-c2ccccc2)nc1N
- EC50 [1]: > 67.5 µM (inactive)
- EC50 (cells [2]): > 67.5 µM (inactive)
